Laboratory results taken from ChEMBL document CHEMBL4028908, “The Discovery of 3-((4-Chloro-3-methoxyphenyl)amino)-1-((3R,4S)-4-cyanotetrahydro-2H-pyran-3-yl)-1H-pyrazole-4-carboxamide, a Highly Ligand Efficient and Efficacious Janus Kinase 1 Selective Inhibitor with Favorable Pharmacokinetic Properties” (J Med Chem, 2017).
pIC50: −log10 of the molar value. Values after ≈ are worked out from the molar mass of the structure shown.

Legend:
[1] = Oral bioavailability in rat at 1 mg/kg; type: ADME, organism-based; conditions: in vivo
[2] = Oral bioavailability in dog at 0.5 mg/kg; type: ADME, organism-based, Canis lupus familiaris; conditions: in vivo
[3] = Volume of distribution at steady state in rat at 0.5 mg/kg, iv or 1 mg/kg, po; type: ADME, organism-based; conditions: in vivo, read-out: Vdss
[4] = biological target: T1, Tyrosine-protein kinase JAK1 (Homo sapiens, UniProt P23458)
T1 sequence (P23458 whole entry): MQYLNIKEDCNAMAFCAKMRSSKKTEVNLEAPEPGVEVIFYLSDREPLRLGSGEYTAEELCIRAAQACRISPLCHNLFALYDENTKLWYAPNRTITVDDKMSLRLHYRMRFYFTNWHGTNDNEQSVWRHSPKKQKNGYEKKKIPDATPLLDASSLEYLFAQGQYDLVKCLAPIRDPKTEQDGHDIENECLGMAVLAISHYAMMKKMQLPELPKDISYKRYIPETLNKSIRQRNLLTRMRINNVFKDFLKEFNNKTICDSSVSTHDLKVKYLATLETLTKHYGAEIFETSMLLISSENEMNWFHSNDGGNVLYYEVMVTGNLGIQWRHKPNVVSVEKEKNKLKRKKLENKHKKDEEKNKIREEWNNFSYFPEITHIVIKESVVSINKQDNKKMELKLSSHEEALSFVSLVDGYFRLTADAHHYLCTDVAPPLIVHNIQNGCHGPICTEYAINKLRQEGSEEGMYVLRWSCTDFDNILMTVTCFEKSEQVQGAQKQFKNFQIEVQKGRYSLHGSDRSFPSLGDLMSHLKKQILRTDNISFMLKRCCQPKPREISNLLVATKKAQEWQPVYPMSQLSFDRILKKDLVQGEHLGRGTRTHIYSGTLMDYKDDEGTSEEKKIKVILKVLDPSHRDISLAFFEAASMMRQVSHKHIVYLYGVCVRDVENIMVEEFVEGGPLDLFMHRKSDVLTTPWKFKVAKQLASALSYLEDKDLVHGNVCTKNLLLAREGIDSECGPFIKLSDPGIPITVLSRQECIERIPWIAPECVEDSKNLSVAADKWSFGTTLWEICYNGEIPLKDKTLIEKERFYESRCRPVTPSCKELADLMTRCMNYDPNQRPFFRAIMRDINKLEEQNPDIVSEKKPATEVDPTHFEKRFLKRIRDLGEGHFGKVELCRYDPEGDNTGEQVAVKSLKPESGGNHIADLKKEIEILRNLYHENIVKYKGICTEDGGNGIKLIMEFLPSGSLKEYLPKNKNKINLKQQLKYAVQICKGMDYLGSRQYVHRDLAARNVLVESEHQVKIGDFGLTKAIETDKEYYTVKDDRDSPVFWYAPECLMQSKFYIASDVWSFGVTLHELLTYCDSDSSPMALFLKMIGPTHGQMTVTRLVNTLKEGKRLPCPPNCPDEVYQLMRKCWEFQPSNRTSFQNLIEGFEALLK

[5] = Volume of distribution at steady state in dog at 0.25 mg/kg, iv or 0.5 mg/kg, po; type: ADME, organism-based, Canis lupus familiaris; conditions: in vivo, read-out: Vdss
[6] = Plasma clearance in dog at 0.25 mg/kg, iv or 0.5 mg/kg, po; type: ADME, organism-based, Canis lupus familiaris
[7] = biological target: T2, Voltage-gated inwardly rectifying potassium channel KCNH2 (Homo sapiens, UniProt Q12809)
T2 sequence (Q12809 whole entry): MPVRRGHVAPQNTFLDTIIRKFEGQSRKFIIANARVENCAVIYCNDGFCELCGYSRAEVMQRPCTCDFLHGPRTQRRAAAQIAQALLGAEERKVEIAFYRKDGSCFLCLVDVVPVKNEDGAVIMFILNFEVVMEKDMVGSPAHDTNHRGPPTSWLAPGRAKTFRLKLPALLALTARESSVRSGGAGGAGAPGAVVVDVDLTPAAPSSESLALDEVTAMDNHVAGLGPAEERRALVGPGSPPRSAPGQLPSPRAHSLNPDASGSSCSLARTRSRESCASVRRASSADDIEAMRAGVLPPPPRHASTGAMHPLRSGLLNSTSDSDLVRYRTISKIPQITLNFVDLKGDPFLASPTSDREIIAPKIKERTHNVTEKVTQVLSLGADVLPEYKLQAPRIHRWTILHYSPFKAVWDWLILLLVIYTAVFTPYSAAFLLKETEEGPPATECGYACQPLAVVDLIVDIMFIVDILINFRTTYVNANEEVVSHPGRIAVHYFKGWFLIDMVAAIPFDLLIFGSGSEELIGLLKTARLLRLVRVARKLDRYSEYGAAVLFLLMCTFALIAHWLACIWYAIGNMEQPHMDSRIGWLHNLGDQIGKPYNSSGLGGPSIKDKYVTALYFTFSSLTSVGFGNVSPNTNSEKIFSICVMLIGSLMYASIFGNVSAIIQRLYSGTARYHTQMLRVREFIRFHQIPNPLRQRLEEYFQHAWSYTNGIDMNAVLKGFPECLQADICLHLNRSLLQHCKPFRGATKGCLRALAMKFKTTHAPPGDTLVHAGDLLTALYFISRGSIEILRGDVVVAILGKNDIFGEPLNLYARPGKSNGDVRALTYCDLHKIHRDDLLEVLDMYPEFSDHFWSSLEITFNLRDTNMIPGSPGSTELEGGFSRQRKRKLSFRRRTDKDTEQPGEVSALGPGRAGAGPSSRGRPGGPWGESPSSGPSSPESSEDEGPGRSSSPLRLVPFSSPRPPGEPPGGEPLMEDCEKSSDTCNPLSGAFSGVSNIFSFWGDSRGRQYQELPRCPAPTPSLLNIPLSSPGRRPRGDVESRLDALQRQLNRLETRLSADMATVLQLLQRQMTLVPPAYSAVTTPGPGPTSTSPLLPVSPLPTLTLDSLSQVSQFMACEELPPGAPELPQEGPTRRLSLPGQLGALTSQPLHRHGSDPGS

[8] = Lipophilicity, log D of the compound at 100 uM at pH 7 by HPLC/DAD analysis; type: physicochemical; conditions: buffer
[9] = Plasma clearance in rat at 0.5 mg/kg, iv or 1 mg/kg, po; type: ADME, organism-based
[10] = biological target: T2, Voltage-gated inwardly rectifying potassium channel KCNH2; assay: Inhibition of human ERG expressed in HEK293 cells by patch clamp method; type: cell-based
[11] = biological target: T3, Tyrosine-protein kinase JAK3 (Homo sapiens, UniProt P52333)
T3 sequence (P52333 whole entry): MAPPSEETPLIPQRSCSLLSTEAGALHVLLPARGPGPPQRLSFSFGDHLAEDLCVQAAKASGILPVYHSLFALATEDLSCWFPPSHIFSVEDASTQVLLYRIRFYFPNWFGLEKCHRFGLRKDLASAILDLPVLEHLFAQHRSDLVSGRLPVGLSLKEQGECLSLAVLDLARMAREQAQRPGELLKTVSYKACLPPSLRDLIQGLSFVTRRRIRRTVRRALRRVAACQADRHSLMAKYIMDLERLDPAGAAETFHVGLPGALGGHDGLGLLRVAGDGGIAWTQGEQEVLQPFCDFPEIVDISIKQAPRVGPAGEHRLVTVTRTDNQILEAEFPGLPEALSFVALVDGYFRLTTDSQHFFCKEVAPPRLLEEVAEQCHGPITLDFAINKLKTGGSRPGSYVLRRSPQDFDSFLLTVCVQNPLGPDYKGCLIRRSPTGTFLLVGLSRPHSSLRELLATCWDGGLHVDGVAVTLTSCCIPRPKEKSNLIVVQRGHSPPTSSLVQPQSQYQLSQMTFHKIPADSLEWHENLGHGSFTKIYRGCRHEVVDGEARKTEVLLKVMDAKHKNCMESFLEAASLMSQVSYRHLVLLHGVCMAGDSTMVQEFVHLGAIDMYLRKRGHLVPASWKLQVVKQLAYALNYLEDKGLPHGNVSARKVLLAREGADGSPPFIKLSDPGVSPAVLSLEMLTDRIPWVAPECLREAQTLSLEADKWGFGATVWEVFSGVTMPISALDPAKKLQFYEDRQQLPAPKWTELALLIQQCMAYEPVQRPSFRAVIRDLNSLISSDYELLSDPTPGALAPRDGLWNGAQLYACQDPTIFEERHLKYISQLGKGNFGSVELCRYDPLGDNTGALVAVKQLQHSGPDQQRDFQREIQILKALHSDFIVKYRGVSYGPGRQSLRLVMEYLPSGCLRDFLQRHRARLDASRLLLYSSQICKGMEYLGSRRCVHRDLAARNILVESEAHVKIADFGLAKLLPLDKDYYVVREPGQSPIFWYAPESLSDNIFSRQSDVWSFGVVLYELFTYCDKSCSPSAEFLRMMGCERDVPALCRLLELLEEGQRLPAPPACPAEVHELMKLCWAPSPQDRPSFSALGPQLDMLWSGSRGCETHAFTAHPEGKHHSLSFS

[12] = biological target: T1, Tyrosine-protein kinase JAK1; remark: listed apart in the source
[13] = Intrinsic clearance in human hepatocytes after 120 mins by LC-MS/MS analysis; type: ADME, cell-based, Hepatocyte; conditions: read-out: CLH
[14] = biological target: Non-receptor tyrosine-protein kinase TYK2 (Homo sapiens, UniProt P29597)
Non-receptor tyrosine-protein kinase TYK2, sequence (P29597 whole entry): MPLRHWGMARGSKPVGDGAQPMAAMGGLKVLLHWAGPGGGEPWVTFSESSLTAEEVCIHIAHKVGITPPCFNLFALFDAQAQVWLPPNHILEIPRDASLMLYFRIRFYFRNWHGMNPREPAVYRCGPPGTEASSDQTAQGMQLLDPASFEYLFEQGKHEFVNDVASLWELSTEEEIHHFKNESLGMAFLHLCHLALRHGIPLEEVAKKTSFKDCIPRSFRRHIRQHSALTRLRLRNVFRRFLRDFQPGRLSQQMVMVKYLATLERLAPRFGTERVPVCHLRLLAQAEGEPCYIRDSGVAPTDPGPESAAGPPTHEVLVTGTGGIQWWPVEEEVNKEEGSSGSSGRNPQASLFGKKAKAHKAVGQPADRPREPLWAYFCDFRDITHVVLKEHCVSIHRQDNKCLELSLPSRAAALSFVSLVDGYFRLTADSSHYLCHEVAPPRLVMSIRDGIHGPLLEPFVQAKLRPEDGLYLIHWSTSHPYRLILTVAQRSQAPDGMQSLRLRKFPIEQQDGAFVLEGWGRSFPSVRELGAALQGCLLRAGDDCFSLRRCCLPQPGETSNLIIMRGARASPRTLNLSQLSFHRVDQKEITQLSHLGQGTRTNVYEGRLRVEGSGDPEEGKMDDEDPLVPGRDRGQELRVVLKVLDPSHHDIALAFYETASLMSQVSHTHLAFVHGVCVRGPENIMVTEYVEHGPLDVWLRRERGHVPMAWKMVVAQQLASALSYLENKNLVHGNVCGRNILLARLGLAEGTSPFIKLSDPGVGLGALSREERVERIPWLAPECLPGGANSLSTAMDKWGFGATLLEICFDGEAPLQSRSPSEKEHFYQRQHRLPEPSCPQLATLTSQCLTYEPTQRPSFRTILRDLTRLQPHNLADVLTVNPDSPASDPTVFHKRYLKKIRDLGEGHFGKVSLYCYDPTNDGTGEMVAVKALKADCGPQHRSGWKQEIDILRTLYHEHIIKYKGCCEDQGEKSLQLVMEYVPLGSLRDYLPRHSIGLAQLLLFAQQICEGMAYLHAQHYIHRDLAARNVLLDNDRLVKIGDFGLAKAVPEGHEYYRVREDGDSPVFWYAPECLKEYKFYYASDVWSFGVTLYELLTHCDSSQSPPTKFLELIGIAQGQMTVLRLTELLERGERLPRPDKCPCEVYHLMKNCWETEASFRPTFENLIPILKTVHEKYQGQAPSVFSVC

[15] = Intrinsic clearance in rat hepatocytes after 120 mins by LC-MS/MS analysis; type: ADME, cell-based, Hepatocyte; conditions: read-out: CLH
[16] = Protein binding in dog plasma; type: ADME, cell-free, Canis lupus familiaris; conditions: read-out: PPB (converted)
[17] = Plasma clearance in cynomolgus monkey at 0.25 mg/kg, iv or 0.5 mg/kg, po; type: ADME, organism-based, Macaca fascicularis
[18] = biological target: T4, Tyrosine-protein kinase JAK2 (Homo sapiens, UniProt O60674)
T4 sequence (O60674 whole entry): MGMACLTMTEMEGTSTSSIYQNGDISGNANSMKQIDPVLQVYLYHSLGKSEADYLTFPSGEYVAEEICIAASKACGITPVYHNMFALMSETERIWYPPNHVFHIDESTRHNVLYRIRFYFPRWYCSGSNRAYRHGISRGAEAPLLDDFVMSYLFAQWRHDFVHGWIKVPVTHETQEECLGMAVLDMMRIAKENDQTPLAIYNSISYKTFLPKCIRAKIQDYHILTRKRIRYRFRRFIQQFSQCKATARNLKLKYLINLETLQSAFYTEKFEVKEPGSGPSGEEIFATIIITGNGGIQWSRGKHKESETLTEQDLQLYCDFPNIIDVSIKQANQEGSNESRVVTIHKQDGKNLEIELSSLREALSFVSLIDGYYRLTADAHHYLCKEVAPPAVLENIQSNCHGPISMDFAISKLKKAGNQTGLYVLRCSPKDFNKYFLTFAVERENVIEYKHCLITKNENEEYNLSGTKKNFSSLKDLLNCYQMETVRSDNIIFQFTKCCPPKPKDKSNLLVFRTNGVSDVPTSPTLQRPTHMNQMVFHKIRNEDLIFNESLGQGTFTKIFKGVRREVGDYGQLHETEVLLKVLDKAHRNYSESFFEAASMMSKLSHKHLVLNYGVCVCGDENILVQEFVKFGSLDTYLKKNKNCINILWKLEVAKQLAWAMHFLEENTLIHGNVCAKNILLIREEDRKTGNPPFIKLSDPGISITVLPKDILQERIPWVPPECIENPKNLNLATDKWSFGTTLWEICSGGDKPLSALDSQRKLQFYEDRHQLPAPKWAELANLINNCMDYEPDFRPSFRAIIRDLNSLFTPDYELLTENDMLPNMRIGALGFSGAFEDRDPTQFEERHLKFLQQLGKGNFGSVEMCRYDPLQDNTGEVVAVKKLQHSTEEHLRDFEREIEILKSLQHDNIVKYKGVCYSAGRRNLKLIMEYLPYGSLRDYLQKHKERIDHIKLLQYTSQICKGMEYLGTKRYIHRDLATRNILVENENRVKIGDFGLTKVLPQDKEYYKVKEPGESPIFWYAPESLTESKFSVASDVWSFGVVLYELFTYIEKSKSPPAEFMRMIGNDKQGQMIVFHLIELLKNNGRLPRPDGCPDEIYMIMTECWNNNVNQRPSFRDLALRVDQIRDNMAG

[19] = Half life in cynomolgus monkey at 0.25 mg/kg, iv or 0.5 mg/kg, po; type: ADME, organism-based, Macaca fascicularis; conditions: in vivo
[20] = Protein binding in cynomolgus monkey plasma; type: ADME, cell-free, Macaca fascicularis; conditions: read-out: PPB (converted)
[21] = biological target: T1, Tyrosine-protein kinase JAK1; assay: Inhibition of JAK1 in human whole blood assessed as decrease in cytokine-stimulated STAT phosphorylation preincubated for 20 mins followed by cytokine addition measured after 30 mins
[22] = Intrinsic clearance in dog hepatocytes after 120 mins by LC-MS/MS analysis; type: ADME, cell-based, Canis lupus familiaris, Hepatocyte; conditions: read-out: CLH
[23] = biological target: T4, Tyrosine-protein kinase JAK2; remark: listed apart in the source
[24] = Intrinsic clearance in cynomolgus monkey hepatocytes after 120 mins by LC-MS/MS analysis; type: ADME, cell-based, Macaca fascicularis, Hepatocyte; conditions: read-out: CLH
[25] = test system: Cynomolgus monkey; assay: Unbound clearance in cynomolgus monkey at 0.25 mg/kg, iv or 0.5 mg/kg, po; type: ADME, organism-based, Macaca fascicularis; conditions: in vivo
[26] = Protein binding in rat plasma; type: ADME, cell-free; conditions: read-out: PPB (converted)
[27] = Solubility of the compound in FaSSIF solution at 100 uM after overnight incubation by UPLC/DAD analysis; type: physicochemical
[28] = species on record: Homo sapiens; assay: Selectivity ratio of IC50 for GST-tagged recombinant human JAK2 catalytic domain to IC50 for GST-tagged recombinant human JAK1 catalytic domain
[29] = test system: Rattus norvegicus; assay: Antiinflammatory activity in po dosed Lewis rat type 2 bovine collagen-induced arthritis model assessed as inhibition of paw swelling administered as bid on day 17; type: functional, organism-based
[30] = test system: Canis familiaris; assay: Unbound clearance in dog at 0.25 mg/kg, iv or 0.5 mg/kg, po; type: ADME, organism-based, Canis lupus familiaris; conditions: in vivo
[31] = test system: Rattus norvegicus; assay: Unbound clearance in rat at 0.5 mg/kg, iv or 1 mg/kg, po; type: ADME, organism-based; conditions: in vivo
[32] = Volume of distribution at steady state in cynomolgus monkey at 0.25 mg/kg, iv or 0.5 mg/kg, po; type: ADME, organism-based, Macaca fascicularis; conditions: in vivo, read-out: Vdss
[33] = Oral bioavailability in cynomolgus monkey at 0.5 mg/kg; type: ADME, organism-based, Macaca fascicularis; conditions: in vivo
[34] = Half life in rat at 0.5 mg/kg, iv or 1 mg/kg, po; type: ADME, organism-based; conditions: in vivo
[35] = Half life in dog at 0.25 mg/kg, iv or 0.5 mg/kg, po; type: ADME, organism-based, Canis lupus familiaris; conditions: in vivo
[36] = Apparent permeability of the compound by cell-based assay; type: physicochemical; conditions: not told

| Structure (SMILES) | bioavailability [1] | bioavailability [2] | Vd [3] | pIC50 [4] | Vd [5] | clearance [6] | pIC50 [7] | logD at 100 µM [8] | clearance [9] | pIC50 [11] | pIC50 [12] | CLint scaled [13] | pIC50 [14] | CLint scaled [15] | clearance [17] | pIC50 [18] | half-life [19] | fraction unbound [20] | pIC50 [21] | CLint scaled [22] | further results |
| --- | --- | --- | --- | --- | --- | --- | --- | --- | --- | --- | --- | --- | --- | --- | --- | --- | --- | --- | --- | --- | --- |
| CN(C)[C@H]1CC[C@H](n2cc(C(N)=O)c(Nc3ccc(Cl)cc3)n2)[C@@H](C#N)C1 | 16% | 42% | 11 L/kg | 7.19 | 8 L/kg | 21 mL/min/kg | 4.91 | 2.15 | 41 mL/min/kg | 5.91 | 8.82 | 26 mL/min/kg | 7.89 | 109 mL/min/kg |  |  |  |  |  |  | pIC50 [10]: 5.52 |
| N#Cc1ccc(Nc2nn([C@H]3COCC[C@@H]3C#N)cc2C(N)=O)cc1 | 47% | 51% | 2.6 L/kg | 7.89 | 2.7 L/kg | 12 mL/min/kg | 4.40 | 1.77 | 19 mL/min/kg | 6.64 | 9.82 | 3 mL/min/kg | 8.92 | 6 mL/min/kg | 2.4 mL/min/kg | 7.05 | 5.6 h | 0.21 | 6.66 | 20 mL/min/kg | fraction unbound [16]: 0.18; pIC50 [23]: 8.92; CLint scaled [24]: 6 mL/min/kg; CL free [25]: 12 mL/min/kg; fraction unbound [26]: 0.19; solubility at 100 µM [27]: 130 µM (≈ 43.7 µg/mL); Ratio IC50 [28]: 8; inhibition [29]: Dose-dependent effect; CL free [30]: 67 mL/min/kg; CL free [31]: 100 mL/min/kg; Vd [32]: 1 L/kg; bioavailability [33]: 18%; half-life [34]: 1.4 h; half-life [35]: 2.6 h |
| COc1cc(Nc2nn([C@H]3COCC[C@@H]3C#N)cc2C(N)=O)ccc1Cl | 47% | 29% | 2.7 L/kg | 7.89 | 1.2 L/kg | 14 mL/min/kg |  | 2.34 | 21 mL/min/kg | 6.40 | 10.00 | 6 mL/min/kg | 7.92 | 35 mL/min/kg | 19 mL/min/kg | 6.49 | 2.8 h | 0.033 | 5.75 | 122 mL/min/kg | CLint scaled [24]: 36 mL/min/kg; CL free [25]: 581 mL/min/kg; fraction unbound [26]: 0.06; Ratio IC50 [28]: 39; inhibition [29]: Dose-dependent effect; CL free [31]: 350 mL/min/kg; Vd [32]: 2.8 L/kg; bioavailability [33]: 32%; half-life [34]: 1.6 h; half-life [35]: 1.1 h |
| N#C[C@H]1C[C@@H](N2CCC2)CC[C@@H]1n1cc(C(N)=O)c(Nc2ccc([C@H](O)C(F)(F)F)cc2)n1 | 0% |  |  |  |  |  |  | 1.54 |  |  |  |  |  |  |  |  |  |  |  |  | Papp [36]: 3.3 ×10⁻⁶ cm/s |
